Reference: patent US20250101038A1, “COMPOUNDS” (priority 2021, published 2025)
Like-named read-outs stand apart in the source and are kept apart here.

What was measured:
[1] = biological target: T1, 5-HT2B receptor (Homo sapiens, UniProt P41595); assay: cell-based
T1 construct: host or cells: CHO-K1

[2] = biological target: T2, 5-HT2C receptor (Homo sapiens, UniProt P28335); assay: cell-based
T2 construct: host or cells: HEK293
T2 sequence (P28335 33-458): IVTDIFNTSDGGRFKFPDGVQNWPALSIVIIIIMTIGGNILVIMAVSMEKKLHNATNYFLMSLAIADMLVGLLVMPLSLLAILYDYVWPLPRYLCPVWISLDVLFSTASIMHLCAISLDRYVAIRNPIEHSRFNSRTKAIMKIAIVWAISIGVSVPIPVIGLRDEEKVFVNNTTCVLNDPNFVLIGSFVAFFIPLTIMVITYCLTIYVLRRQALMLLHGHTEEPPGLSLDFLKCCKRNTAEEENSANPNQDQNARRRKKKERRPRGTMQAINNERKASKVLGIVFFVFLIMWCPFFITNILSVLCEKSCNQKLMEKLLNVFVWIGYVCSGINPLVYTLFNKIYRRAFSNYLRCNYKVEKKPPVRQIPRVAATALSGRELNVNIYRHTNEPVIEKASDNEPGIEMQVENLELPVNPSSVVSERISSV

[3] = biological target: T3, 5-HT2A receptor (Homo sapiens, UniProt P28223); assay: FLIPR Ca2+ flux functional assay, 5-HT2A; assay type: cell-based
T3 construct: host or cells: HEK293

[4] = agonist activity, Ca2+ flux, CHO-K1 cells
[5] = agonist activity, Ca2+ flux, CHO-K1 cells, read-out: 5-HT2B EC50
[6] = agonist activity, Ca2+ flux, HEK293 cells
[7] = agonist activity, Ca2+ flux, HEK293 cells, read-out: 5-HT2C EC50
[8] = agonist activity, Ca2+ flux, HEK293 cells, read-out: 5-HT2A EC50

T3 sequence (P28223 whole entry): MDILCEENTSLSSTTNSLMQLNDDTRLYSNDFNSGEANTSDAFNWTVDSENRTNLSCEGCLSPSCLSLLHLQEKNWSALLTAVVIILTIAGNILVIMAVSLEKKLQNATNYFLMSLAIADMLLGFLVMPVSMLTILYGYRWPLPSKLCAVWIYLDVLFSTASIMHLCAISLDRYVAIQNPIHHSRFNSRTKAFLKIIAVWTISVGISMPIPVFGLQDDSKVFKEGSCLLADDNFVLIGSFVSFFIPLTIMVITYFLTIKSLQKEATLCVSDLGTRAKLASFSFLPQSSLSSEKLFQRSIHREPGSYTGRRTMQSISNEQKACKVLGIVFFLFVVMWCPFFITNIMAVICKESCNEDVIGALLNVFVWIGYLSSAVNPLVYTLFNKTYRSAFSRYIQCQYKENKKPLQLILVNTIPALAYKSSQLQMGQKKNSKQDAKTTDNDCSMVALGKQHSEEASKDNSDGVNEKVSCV
T1 sequence (P41595 whole entry): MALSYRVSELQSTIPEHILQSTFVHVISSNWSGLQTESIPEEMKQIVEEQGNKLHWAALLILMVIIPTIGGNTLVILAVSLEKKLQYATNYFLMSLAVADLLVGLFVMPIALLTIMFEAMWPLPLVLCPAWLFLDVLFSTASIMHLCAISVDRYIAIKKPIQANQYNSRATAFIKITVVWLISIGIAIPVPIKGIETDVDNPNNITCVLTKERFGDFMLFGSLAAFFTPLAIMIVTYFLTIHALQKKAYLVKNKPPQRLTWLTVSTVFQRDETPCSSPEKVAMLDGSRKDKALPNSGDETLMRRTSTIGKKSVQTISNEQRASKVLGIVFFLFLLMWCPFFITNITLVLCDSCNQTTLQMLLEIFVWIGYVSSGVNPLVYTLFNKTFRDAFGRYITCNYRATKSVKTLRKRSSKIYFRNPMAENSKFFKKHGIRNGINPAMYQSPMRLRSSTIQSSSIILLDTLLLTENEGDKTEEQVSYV

COc1ccc(C)c2[nH]cc(CCN(C(C)C)C(C)C)c12 [Example P-83, N-isopropyl-N-(2-(4-methoxy-7-methyl-1H-indol-3-yl)ethyl)propan-2-amine]
Emax [1, 4]: 30% | EC50 [1, 5]: > 10000 nM | Emax [2, 6]: 66.7% | EC50 [2, 7]: 1620 nM | Emax [3, 6]: 79.2% | EC50 [3, 8]: 619 nM

CCN(C)CCc1c[nH]c2c(F)cc(OC)cc12 [Example P-115, N-ethyl-2-(7-fluoro-5-methoxy-1H-indol-3-yl)-N-methylethan-1-amine]
Emax [1, 4]: 16.4% | Emax [2, 6]: 81.7% | Emax [3, 6]: 85.6%

CCN(CC)CCc1c[nH]c2c(F)cc(OC)cc12 [Example P-117, N,N-diethyl-2-(7-fluoro-5-methoxy-1H-indol-3-yl)ethan-1-amine]
Emax [1, 4]: 41.2% | Emax [2, 6]: 81.5% | Emax [3, 6]: 95.8%

CCN(CCc1c[nH]c2ccc(C)c(OC)c12)C(C)C [Example P-62, N-ethyl-N-(2-(4-methoxy-5-methyl-1H-indol-3-yl)ethyl)propan-2-amine]
Emax [1, 4]: 61.5% | EC50 [1, 5]: 5320 nM | Emax [2, 6]: 65.9% | EC50 [2, 7]: 1290 nM | Emax [3, 6]: 41.9% | EC50 [3, 8]: 319 nM

CCN(C)CCc1c[nH]c2c(F)ccc(OC)c12 [Example P-102, N-ethyl-2-(7-fluoro-4-methoxy-1H-indol-3-yl)-N-methylethan-1-amine]
Emax [1, 4]: 3.44% | EC50 [1, 5]: > 10000 nM | Emax [2, 6]: 47.5% | EC50 [2, 7]: 155 nM | Emax [3, 6]: 60.8% | EC50 [3, 8]: 15 nM

COc1c(C)ccc2[nH]cc(CCN(C)C)c12 [Example P-9, 2-(4-methoxy-5-methyl-1H-indol-3-yl)-N,N-dimethylethan-1-amine]
Emax [1, 4]: 17.3% | EC50 [1, 5]: > 10000 nM | Emax [2, 6]: 80.7% | EC50 [2, 7]: 6.23 nM | Emax [3, 6]: 65% | EC50 [3, 8]: 24.6 nM

COc1ccc(F)c2[nH]cc(CCN(C)C)c12 [Example P-101, 2-(7-fluoro-4-methoxy-1H-indol-3-yl)-N,N-dimethylethan-1-amine]
Emax [1, 4]: 4.06% | EC50 [1, 5]: > 10000 nM | Emax [2, 6]: 53.1% | EC50 [2, 7]: 8.28 nM | Emax [3, 6]: 71.6% | EC50 [3, 8]: 3.84 nM

CCN(C)CCc1c[nH]c2ccc3ocnc3c12 [Example P-127, N-ethyl-N-methyl-2-(6H-oxazolo[4,5-e]indol-8-yl)ethan-1-amine]
EC50 [1]: > 10000 nM | Emax [1, 4]: 10.5% | EC50 [2]: 30.7 nM | Emax [2, 6]: 70.5% | EC50 [3]: 12 nM | Emax [3, 6]: 54%

CCCN(CCC)CCc1c[nH]c2cc(C)c(OC)cc12 [Example P-48, N,N-dipropyl-2-(5-methoxy-6-methyl-1H-indol-3-yl)ethan-1-amine]
Emax [1, 4]: 56.8% | Emax [2, 6]: 74% | Emax [3, 6]: 77.5%

CCN(C)CCc1c[nH]c2c(C)ccc(O)c12 [Example P-85, 3-(2-(ethyl(methyl)amino)ethyl)-7-methyl-1H-indol-4-ol]
Emax [1, 4]: 0.13% | Emax [2, 6]: 26.9% | Emax [3, 6]: 52%

CN(C)CCc1c[nH]c2cc3ccoc3cc12 [Example P-2, 2-(5H-Furo[2,3-f]indol-7-yl)-N,N-dimethylethan-1-amine]
Emax [1, 4]: -1.07% | EC50 [1, 5]: > 10000 nM | Emax [2, 6]: 80.6% | EC50 [2, 7]: 56.8 nM | Emax [3, 6]: 46.5% | EC50 [3, 8]: 207 nM

COc1c(C)ccc2[nH]cc(CCN(C(C)C)C(C)C)c12 [Example P-63, N-isopropyl-N-(2-(4-methoxy-5-methyl-1H-indol-3-yl)ethyl)propan-2-amine]
Emax [1, 4]: 70.2% | EC50 [1, 5]: 2250 nM | Emax [2, 6]: 49.4% | EC50 [2, 7]: 9660 nM | Emax [3, 6]: 72.7% | EC50 [3, 8]: 1570 nM

CCN(CC)CCc1c[nH]c2cc(C)c(OC)cc12 [Example P-45, N,N-diethyl-2-(5-methoxy-6-methyl-1H-indol-3-yl)ethan-1-amine]
5-HT2B Emax [1, 4]: 23.83% | EC50 [1, 5]: 846 nM | 5-HT2C Emax [2, 6]: 84.59% | EC50 [2, 7]: 700 nM | 5-HT2A Emax [3, 6]: 81.54% | EC50 [3, 8]: 78.2 nM

Cc1ccc(O)c2c(CCN(C)C(C)C)c[nH]c12 [Example P-87, 3-(2-(isopropyl(methyl)amino)ethyl)-7-methyl-1H-indol-4-ol]
Emax [1, 4]: -0.38% | EC50 [1, 5]: ≥ 10000 nM | Emax [2, 6]: 4.33% | EC50 [2, 7]: > 10000 nM | Emax [3, 6]: 62.4% | EC50 [3, 8]: 113 nM

CCN(CC)CCc1c[nH]c2cc(F)cc(OC)c12 [Example P-98, N,N-diethyl-2-(6-fluoro-4-methoxy-1H-indol-3-yl)ethan-1-amine]
Emax [1, 4]: 63.6% | EC50 [1, 5]: 5430 nM | Emax [2, 6]: 71.8% | EC50 [2, 7]: 311 nM | Emax [3, 6]: 64.3% | EC50 [3, 8]: 16 nM

Cc1ccc2[nH]cc(CCN(C(C)C)C(C)C)c2c1O [Example P-69, 3-(2-(diisopropylamino)ethyl)-5-methyl-1H-indol-4-ol]
Emax [1, 4]: 66.9% | EC50 [1, 5]: ≥ 10000 nM | Emax [2, 6]: 70.2% | EC50 [2, 7]: 3210 nM | Emax [3, 6]: 78.8% | EC50 [3, 8]: 245 nM

CCCN(C)CCc1c[nH]c2c(C)ccc(O)c12 [Example P-86, 7-methyl-3-(2-(methyl(propyl)amino)ethyl)-1H-indol-4-ol]
Emax [1, 4]: -0.14% | EC50 [1, 5]: ≥ 10000 nM | Emax [2, 6]: 10% | EC50 [2, 7]: > 10000 nM | Emax [3, 6]: 66.9% | EC50 [3, 8]: 110 nM

CCCN(CCC)CCc1c[nH]c2c(C)ccc(O)c12 [Example P-89, 3-(2-(dipropylamino)ethyl)-7-methyl-1H-indol-4-ol]
Emax [1, 4]: 6.63% | EC50 [1, 5]: ≥ 10000 nM | Emax [2, 6]: 54.7% | EC50 [2, 7]: 889 nM | Emax [3, 6]: 118% | EC50 [3, 8]: 48.6 nM

CCCN(CCC)CCc1c[nH]c2ccc(C)c(O)c12 [Example P-68, 3-(2-(dipropylamino)ethyl)-5-methyl-1H-indol-4-ol]
Emax [1, 4]: 64.3% | EC50 [1, 5]: ≥ 10000 nM | Emax [2, 6]: 78% | EC50 [2, 7]: 871 nM | Emax [3, 6]: 102% | EC50 [3, 8]: 148 nM

COc1cc(F)c2[nH]cc(CCN(C(C)C)C(C)C)c2c1 [Example P-118, N-(2-(7-fluoro-5-methoxy-1H-indol-3-yl)ethyl)-N-isopropylpropan-2-amine]
Emax [1, 4]: 95.2% | EC50 [1, 5]: 66.3 nM | Emax [2, 6]: 97.1% | EC50 [2, 7]: 695 nM | Emax [3, 6]: 82.2% | EC50 [3, 8]: 17.4 nM

COc1ccc(F)c2[nH]cc(CCN(C)C(C)C)c12 [Example P-103, N-(2-(7-fluoro-4-methoxy-1H-indol-3-yl)ethyl)-N-methylpropan-2-amine]
Emax [1, 4]: 3.67% | EC50 [1, 5]: > 10000 nM | Emax [2, 6]: 7.02% | EC50 [2, 7]: > 10000 nM | Emax [3, 6]: 61.8% | EC50 [3, 8]: 34.6 nM

CCN(CC)CCc1c[nH]c2c(C)ccc(OC)c12 [Example P-82, N,N-diethyl-2-(4-methoxy-7-methyl-1H-indol-3-yl)ethan-1-amine]
Emax [1, 4]: 0.89% | EC50 [1, 5]: > 10000 nM | Emax [2, 6]: 76.7% | EC50 [2, 7]: 417 nM | Emax [3, 6]: 42.4% | EC50 [3, 8]: 283 nM

CCN(CC)CCc1c[nH]c2c(C)cc(OC)cc12 [Example P-54, N, N-diethyl-2-(5-methoxy-7-methyl-1H-indol-3-yl)ethan-1-amine]
Emax [1, 4]: 7.69% | EC50 [1, 5]: > 10000 nM | Emax [2, 6]: 58% | EC50 [2, 7]: 1750 nM | Emax [3, 6]: 82.8% | EC50 [3, 8]: 249 nM

CCCN(CC)CCc1c[nH]c2c(C)cc(OC)cc12 [Example P-55, N-ethyl-N-(2-(5-methoxy-7-methyl-1H-indol-3-yl)ethyl)propan-1-amine]
Emax [1, 4]: 13.2% | EC50 [1, 5]: > 10000 nM | Emax [2, 6]: 57.9% | EC50 [2, 7]: 1810 nM | Emax [3, 6]: 81.8% | EC50 [3, 8]: 134 nM
